Laboratory results taken from patent US6451801B1, “Compounds and methods for treatment of asthma, allergy and inflammatory disorders” (UCB, S.A., priority 1999, dated 2002).
Like-named read-outs stand apart in the source and are kept apart here.

Legend:
human cloned H1 receptor = target: T1, human cloned H1 receptor (Homo sapiens, UniProt P35367); experiment: CHO-K1 H1R binding assay; settings: 3H-pyrilamine 2 nM, CHO-K1 membranes, 3 hours at 37° C.; read-out: CHOH1 K1
T1 construct: expressed in transfected cells; host or cells: CHO-K1
Protocol: CHO-K1 cells expressing the human cloned H1 receptor are grown to confluence in tissue culture dishes. Cells are harvested using D-PBS buffer (JRH Biosciences), kept at 4° C., centrifuging to pellet cells (4° C., 500 g, 10 min). The final cell pellet is homogenized and resuspended using Tris/sucrose buffer (20 mM Tris, 250 mM sucrose, pH 7.4 at 4° C.). Aliquots of the membrane preparation are stored at −70° C.
On the day of assay, the membrane preparation is thawed and centrifuged (TLA100.3 rotor, 4° C., 15 min, 23,000 rpm). The pellet is resuspended in Tris/sucrose buffer initially and then diluted further as necessary using assay buffer A (50 mM Na/KPO4, 2 mM MgCl2, 0.5% (w/v) BSA, pH 7.5).
For the binding assay, the membrane preparation, test compound and ^3H-pyrilamine (2 nM final) in buffer A with 1% (v/v) DMSO final are incubated in a 96-well polypropylene plate for 3 hours at 37° C. Non-specific binding is determined in the presence of 10 μM pyrilamine. A 96-well harvester (Packard) is used to harvest the 96-well plate onto a GF/B filter plate pre-treated with 0.1% (v/v) PEI. The plate is counted in a Packard Topcounter after adding Microscint 20 (Packard) scintillation fluid. The Ki for each compound at the histamine H1 receptor is then calculated from these counts.

15-lipoxygenase = target: T2, 15-lipoxygenase (Oryctolagus cuniculus, UniProt P12530); experiment: Inhibition of 15-lipoxygenase (15-HETE production); type: biochemical; settings: 15-lipoxygenase from rabbit peritoneal polymorphonuclear leukocytes, 5 min at 37° C.
T2 construct: from tissue; host or cells: rabbit peritoneal polymorphonuclear leukocytes
T2 sequence (P12530 1-663): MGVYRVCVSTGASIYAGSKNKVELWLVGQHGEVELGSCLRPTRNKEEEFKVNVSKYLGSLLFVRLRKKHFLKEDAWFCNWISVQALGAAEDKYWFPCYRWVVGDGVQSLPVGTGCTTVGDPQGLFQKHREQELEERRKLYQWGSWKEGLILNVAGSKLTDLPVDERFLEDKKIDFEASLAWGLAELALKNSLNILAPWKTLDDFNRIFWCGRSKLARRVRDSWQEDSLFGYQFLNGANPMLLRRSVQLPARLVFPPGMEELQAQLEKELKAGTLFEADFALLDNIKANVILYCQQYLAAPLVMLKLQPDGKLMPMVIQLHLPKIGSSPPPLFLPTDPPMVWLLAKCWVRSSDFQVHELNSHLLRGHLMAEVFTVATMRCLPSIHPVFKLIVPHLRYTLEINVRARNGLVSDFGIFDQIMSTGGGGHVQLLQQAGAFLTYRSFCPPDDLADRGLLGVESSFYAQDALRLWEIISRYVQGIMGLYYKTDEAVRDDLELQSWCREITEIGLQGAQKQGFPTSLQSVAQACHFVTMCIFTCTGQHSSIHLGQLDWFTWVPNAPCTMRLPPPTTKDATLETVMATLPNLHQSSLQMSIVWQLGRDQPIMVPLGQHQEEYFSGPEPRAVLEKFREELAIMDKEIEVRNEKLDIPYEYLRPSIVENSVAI
Description: This assay examines the ability of a compound to inhibit production of 15-hydroxy-5, 8, 11, 13-eicosatetraenoic acid (15-HETE) via the action of 15-lipoxygenase on arachidonic acid. 15-lipoxygenase was purified from rabbit peritoneal polymorphonuclear leukocytes. The enzyme is responsible for the conversion of arachidonic acid (via oxygenation at carbon 15 of arachidonic acid) to 15-hydroperoxy-5, 8, 11, 13-eicosatetraenoic acid (15-HPETE), which then reduced to 15-hydroxy-5, 8, 11, 13-eicosatetraenoic acid (15-HETE).
The procedure for the assay is as follows. Arachidonic acid is co-incubated with […] for 5 min at 37° C. in the presence or absence of different concentrations of test compound (10^−8 to 10^−5 M). Production of 15-HETE in each sample is then measured by radioimmunoassay. The 15-HETE levels produced in the vehicle control sample are then compared to those in which the test compound has been added.

[1] = target: T3, human 5-lipoxygenase enzyme (Homo sapiens, UniProt P09917); experiment: Inhibition of LTB4 production in human whole blood; type: cell-based
T3 construct: endogenous in cells; host or cells: human whole blood (leukocytes) stimulated with A23187
T3 sequence (P09917 1-674): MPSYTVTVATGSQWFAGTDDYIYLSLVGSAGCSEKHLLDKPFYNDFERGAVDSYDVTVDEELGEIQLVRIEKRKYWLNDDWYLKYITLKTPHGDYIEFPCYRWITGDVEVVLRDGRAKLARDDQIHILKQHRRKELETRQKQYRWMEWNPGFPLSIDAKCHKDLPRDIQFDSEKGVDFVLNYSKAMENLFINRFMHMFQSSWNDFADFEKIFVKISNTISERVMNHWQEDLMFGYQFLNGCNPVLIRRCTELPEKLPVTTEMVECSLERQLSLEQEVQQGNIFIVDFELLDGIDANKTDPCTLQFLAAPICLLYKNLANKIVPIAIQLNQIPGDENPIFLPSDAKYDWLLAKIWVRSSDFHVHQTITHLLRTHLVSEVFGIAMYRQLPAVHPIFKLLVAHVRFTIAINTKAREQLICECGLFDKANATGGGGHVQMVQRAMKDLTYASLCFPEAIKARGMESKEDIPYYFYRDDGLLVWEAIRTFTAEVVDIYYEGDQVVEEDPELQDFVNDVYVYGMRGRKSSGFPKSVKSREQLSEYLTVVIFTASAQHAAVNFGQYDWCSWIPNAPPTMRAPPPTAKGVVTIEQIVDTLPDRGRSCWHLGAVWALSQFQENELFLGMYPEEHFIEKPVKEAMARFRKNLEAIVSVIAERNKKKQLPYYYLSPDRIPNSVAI
Protocol: This assay examines the ability of a compound to inhibit leukotriene B4 production from human blood stimulated with calcium ionophore. As this production of leukotriene B4 is mediated via the activation of the 5-lipoxygenase enzyme, this assay is predictive of a compound's ability to inhibit the human 5-lipoxygenase enzyme.
The procedure for the assay is as follows. Blood is drawn from normal human volunteers into tubes containing heparin. 1 ml of the heparinized blood is pipetted into a 1.5 ml polypropylene tube. To this sample is added either different concentrations of the test compound (5 μl) dissolved in DMSO or 5 μl of DMSO as a vehicle control. These samples are incubated in a water bath, at 37° C. for 15 min. 5 μl of the calcium ionophore A23187 (at a final concentration of 50 μM) is then added to each sample, which is vortexed and placed back in the water bath for 30 min. The samples are then centrifuged at 2500 rpm for 10 min. at 4° C. 50 μl of the supernatant is transferred into pre-cooled Eppendorf tubes containing 950 μl of enzyme immunoassay (EIA) buffer. A commercially available EIA kit (Cayman Chemical Co., Ann Arbor, Mich., USA) is used to subsequently measure the LTB4 production in the samples. The LTB4 levels produced in the vehicle control sample is then compared to those in which the test compound has been added. From this a percent inhibition of LTB4 production by each concentration of test compound is calculated and the IC50 for inhibition of LTB4 production for each test compound is determined.

[2] = system: histamine-induced bronchoconstriction; experiment: Antihistaminergic activity in vivo (histamine-induced bronchoconstriction); settings: guinea pig, oral
Protocol: Male, Hartley guinea pigs are obtained from Charles River Labs at a body weight of 350 -400 grams. Inhibition of histamine activity is measured by the method of Konzett and Rössler (Naonyn-Schmiedebergs Arch. Exp. Path. Pharmakol. 195, 71-74 (1940). Anaethetized guinea pigs are subjected to artificial ventilation. The endotracheal pressure is recorded. Bronchoconstriction is induced by successive intravenous injections of histamine. The test compounds are administered orally in a 1% methocellulose suspension at set timepoints prior to the administration of histamine.
The results (Table 2) show the percent inhibition of histamine-induced bronchoconstriction by selected compounds at multiple time points post oral dosing. 50% inhibition or greater is considered significant.

5-lipoxygenase = experiment: 5-Lipoxygenase inhibitory activity in vivo; settings: guinea pig, oral, 2 mg/kg
Protocol: Male, Hartley guinea pigs are obtained from Charles River Labs at a body weight of 350-400 grams. Compounds are prepared at a volume of [1-2 mg/ml] in 1% methocellulose for oral dosing. Animals are separated into groups of five (5). Each assay includes a control group dosed with vehicle. Each group of animals is dosed with either vehicle or compound by oral gavage. Animals are allowed to rest for one, three, or six hours after dosing. Control animals are allowed to rest for three hours. At the appropriate times, the animals are anesthetized with Urethane at 1.5 g/kg, ip. Blood is drawn into a heparinized syringe via cardiac puncture. Blood (0.5 ml) is aliquoted into separately-labeled 1.5 ml eppendorf tubes. Each sample is loaded with 5 μl of [15 mM] Arachidonic Acid, and placed in a 37° C. water bath for five minutes. After five minutes, the blood is stimulated with 5 μl of [5 mM] A23187 (Calcium Ionophore) and retained in the water bath for an additional 30 minutes. After the thirty minutes, the blood samples are removed from the water bath and centrifuged at 14,000 rpm for 2 minutes. Plasma is diluted to EIA buffer and an EIA is performed following manufacturer instructions (Cayman Chemical Co., Ann Arbor, Mich., USA). The results (Table 3) show the percent inhibition of 5-lipoxygenase by selected compounds at multiple time points post oral dosing. 50% inhibition or greater is considered significant.

[3] = human whole blood, calcium ionophore A23187 50 μM, LTB4 by EIA, read-out: HWB IC50
[4] = Cavia porcellus, 2 mg/kg, 3 hrs
[5] = Cavia porcellus, 2 mg/kg, 6 hrs

T1 sequence (P35367 whole entry): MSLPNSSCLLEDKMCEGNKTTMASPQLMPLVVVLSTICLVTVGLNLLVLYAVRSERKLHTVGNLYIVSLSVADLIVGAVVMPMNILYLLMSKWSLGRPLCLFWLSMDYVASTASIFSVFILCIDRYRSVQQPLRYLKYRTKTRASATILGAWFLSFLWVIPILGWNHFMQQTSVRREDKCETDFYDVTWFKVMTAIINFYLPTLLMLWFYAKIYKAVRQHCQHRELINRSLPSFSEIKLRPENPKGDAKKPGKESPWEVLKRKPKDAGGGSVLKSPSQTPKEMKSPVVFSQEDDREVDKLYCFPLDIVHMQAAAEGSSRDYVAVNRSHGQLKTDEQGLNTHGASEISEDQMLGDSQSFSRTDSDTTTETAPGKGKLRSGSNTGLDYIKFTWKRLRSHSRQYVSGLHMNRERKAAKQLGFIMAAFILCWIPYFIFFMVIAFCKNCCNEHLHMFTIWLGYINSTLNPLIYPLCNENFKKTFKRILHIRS

Row | SMILES | Ki (human cloned H1 receptor) [nM] | IC50 (15-lipoxygenase) [nM] | IC50 [1, 3] [nM] | inhibition in vivo at 5 mg/kg ([2]; Cavia porcellus, 5 mg/kg, 3 hrs) [%] | % inhibition of 5-lipoxygenase (5-lipoxygenase; 1 hour) [%] | inhibition in vivo at 2 mg/kg [2, 4] [%] | inhibition in vivo at 2 mg/kg [2, 5] [%] | % inhibition of histamine-induced bronchoconstriction ([2]; 2 mg/kg, 6 hrs) [%] | IC50 [1] [nM] | % inhibition of 5-lipoxygenase (5-lipoxygenase; 3 hours) [%] | % inhibition of 5-lipoxygenase (5-lipoxygenase; 6 hours) [%]
1 | NC(=O)N(O)CCC#Cc1ccc(CN2CCN([C@H](c3ccccc3)c3ccc(Cl)cc3)CC2)o1 [Compound 27, N-{4-[5-({4-[(1R) (4-chlorophenyl)phenylmethyl]piperazinyl}methyl)(2-furyl)]but-3-ynyl}amino-N-hydroxyamide] | 150 | – | 650 | – | 88 | 86 | 91 | 91 | – | – | –
2 | NC(=O)N(O)CCC#Cc1ccc(OCCN2CCC(=C3c4ccc(Cl)cc4CCc4cccnc43)CC2)cc1 [Compound 32] | – | 170 | 263 | – | 88 | 65 | – | – | – | – | –
3 | NC(=O)N(O)CCC#Cc1ccc(CN2CCN(C(c3ccc(F)cc3)c3ccc(F)cc3)CC2)o1 [Compound 34, amino-N-{4-[5-({4-[bis (4-fluorophenyl)methyl]piperazinyl}methyl) (2-furyl)]but-3-ynyl}-N-hydroxyamide] | 550 | – | – | – | – | 81 | 89 | – | 142 | 38 | –
4 | NC(=O)N(O)CCC#Cc1ccc(OCCCCN2CCN(C(c3ccc(F)cc3)c3ccc(F)cc3)CC2)cc1 [Compound 80, amino-N-{4-[4-(4-{4-[bis(4-fluorophenyl)methyl]piperazinyl}butoxy)phenyl]but-3-ynyl}-N-hydroxyamide] | – | 110 | 78 | – | – | 98 | – | – | – | 73 | 88
5 | NC(=O)N(O)CCC#Cc1ccc(OCCN2CCN(C(c3ccc(F)cc3)c3ccc(F)cc3)CC2)cc1[N+](=O)[O-] [Compound 87, N-{4-[4-(2-{4-[bis(4-fluorophenyl)methyl]-1-piperazinyl}ethoxy)-2-nitrophenyl]-3-butynyl)-N-hydroxyurea] | 58 | – | 251 | – | 70 | 66 | 73 | – | – | – | 94

Second part, led by results:

Row | Ki (human cloned H1 receptor) [nM] | IC50 (15-lipoxygenase) [nM] | IC50 [1, 3] [nM] | SMILES | inhibition in vivo at 5 mg/kg ([2]; Cavia porcellus, 5 mg/kg, 3 hrs) [%] | % inhibition of 5-lipoxygenase (5-lipoxygenase; 1 hour) [%] | inhibition in vivo at 2 mg/kg [2, 4] [%] | inhibition in vivo at 2 mg/kg [2, 5] [%] | % inhibition of histamine-induced bronchoconstriction ([2]; 2 mg/kg, 6 hrs) [%] | IC50 [1] [nM] | % inhibition of 5-lipoxygenase (5-lipoxygenase; 3 hours) [%] | % inhibition of 5-lipoxygenase (5-lipoxygenase; 6 hours) [%]
6 | 24 | 1300 | 1520 | NC(=O)N(O)Cc1ccc(OCCN2CCN([C@H](c3ccccc3)c3ccc(Cl)cc3)CC2)cc1 [Compound 1, N-{[4-(2-{4-[(1R) (4-chlorophenyl)phenylmethyl]piperazinyl}ethoxy)phenyl]methyl} amino-N-hydroxyamide] | 56 | 62 | – | – | – | – | – | –
7 | 10 | – | 287 | NC(=O)N(O)CCC#Cc1cccc(OCCN2CCN([C@H](c3ccccc3)c3ccc(Cl)cc3)CC2)c1 [Compound 23, N-{4-[3-(2-{4-[(1R)(4-chlorophenyl)phenylmethyl]piperazinyl}ethoxy)phenyl]but-3-ynyl}amino-N-hydroxyamide] | – | 80 | 80 | 92 | – | – | – | –
8 | 135 | 46 | 85 | NC(=O)c1cc(C#CCCN(O)C(N)=O)ccc1OCCN1CCN([C@H](c2ccccc2)c2ccc(Cl)cc2)CC1 [Compound 35, 2-(2-{4-[(1R) (4-chlorophenyl)phenyl-methyl]piperazinyl}ethoxy)-5-[4-(amino-hydroxycarbonylamino)but-1-ynyl]benzamide] | – | 87 | 72 | 88 | – | – | 97 | –
9 | – | 61 | 105 | NC(=O)N(O)CCC#Cc1ccc(OCCCN2CCN([C@H](c3ccccc3)c3ccc(Cl)cc3)CC2)cc1 [Compound 52, N-{4-[4-(3-{4-[(1R)(4-chlorophenyl)phenyl-methyl]piperazinyt}propoxy)phenyl]but-3-ynyl}amino-N-hydroxyamide] | – | – | 69 | – | – | – | 61 | –
